Data as given in US20230117034A1, “PYRAZOLOTRIAZINES” (Bayer Aktiengesellschaft, priority 2019, published 2023).

Legend:
[1] = target: T1, CDK12 (nuclear staining in CAL-120 cells) (Homo sapiens, UniProt Q9NYV4); assay: CDK12 nuclear protein level: immunofluorescence/high content analysis (CAL-120); format: cell-based; conditions: for DC50: CAL-120 cells, 24 h, immunofluorescence, 50% reduction of nuclear CDK12 staining intensity, median, read-out: CDK12 degradation IF, DC50- [mol/l] (median); for (IC50 CDK12 high ATP) to (Degradation DC50 CDK12) ratio: ratio of IC50 CDK12 high ATP kinase assay to DC50 CDK12 degradation (IF, CAL-120)
T1 construct: endogenous in cells; host or cells: CAL-120 human breast cancer cells (DSMZ ACC 459)
T1 sequence (Q9NYV4 whole entry): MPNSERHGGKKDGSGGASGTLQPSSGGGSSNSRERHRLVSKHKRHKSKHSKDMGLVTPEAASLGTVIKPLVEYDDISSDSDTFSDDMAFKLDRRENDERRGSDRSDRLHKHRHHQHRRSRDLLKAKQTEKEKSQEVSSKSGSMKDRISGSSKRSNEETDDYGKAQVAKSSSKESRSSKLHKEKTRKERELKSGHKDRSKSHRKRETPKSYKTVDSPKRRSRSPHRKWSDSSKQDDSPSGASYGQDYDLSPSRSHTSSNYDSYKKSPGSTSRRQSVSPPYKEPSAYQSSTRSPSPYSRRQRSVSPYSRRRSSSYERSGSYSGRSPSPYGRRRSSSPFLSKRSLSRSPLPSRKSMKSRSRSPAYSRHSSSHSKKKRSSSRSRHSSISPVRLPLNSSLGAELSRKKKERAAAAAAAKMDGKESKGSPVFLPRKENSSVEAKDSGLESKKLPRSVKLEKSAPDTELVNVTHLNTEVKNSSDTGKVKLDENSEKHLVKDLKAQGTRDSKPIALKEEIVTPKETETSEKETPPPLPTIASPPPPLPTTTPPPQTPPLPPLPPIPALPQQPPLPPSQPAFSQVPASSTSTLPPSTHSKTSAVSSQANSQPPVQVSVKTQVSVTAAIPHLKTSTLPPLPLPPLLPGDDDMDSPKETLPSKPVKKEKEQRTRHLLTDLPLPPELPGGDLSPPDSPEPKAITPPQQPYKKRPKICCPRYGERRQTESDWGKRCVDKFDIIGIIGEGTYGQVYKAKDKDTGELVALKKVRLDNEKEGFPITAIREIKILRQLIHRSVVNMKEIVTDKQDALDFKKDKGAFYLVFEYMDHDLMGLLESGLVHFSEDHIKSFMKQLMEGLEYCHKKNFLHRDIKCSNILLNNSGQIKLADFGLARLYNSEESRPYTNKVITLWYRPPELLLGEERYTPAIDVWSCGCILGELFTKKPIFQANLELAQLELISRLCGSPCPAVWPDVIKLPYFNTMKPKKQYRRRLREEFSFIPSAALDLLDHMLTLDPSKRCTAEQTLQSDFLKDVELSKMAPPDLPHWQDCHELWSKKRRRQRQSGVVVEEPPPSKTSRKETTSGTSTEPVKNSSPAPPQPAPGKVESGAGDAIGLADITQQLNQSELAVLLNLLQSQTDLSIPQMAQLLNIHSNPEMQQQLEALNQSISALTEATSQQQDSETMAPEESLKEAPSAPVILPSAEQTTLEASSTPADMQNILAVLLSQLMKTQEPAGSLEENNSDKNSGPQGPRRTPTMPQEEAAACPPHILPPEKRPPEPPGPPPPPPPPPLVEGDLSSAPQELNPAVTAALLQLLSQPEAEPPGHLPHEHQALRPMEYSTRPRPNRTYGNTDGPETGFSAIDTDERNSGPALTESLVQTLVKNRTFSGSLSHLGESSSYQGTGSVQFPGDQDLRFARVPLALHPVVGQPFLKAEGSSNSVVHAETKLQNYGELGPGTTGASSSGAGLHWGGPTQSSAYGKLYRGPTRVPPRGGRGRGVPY
T1 sequence (O75909 whole entry partner): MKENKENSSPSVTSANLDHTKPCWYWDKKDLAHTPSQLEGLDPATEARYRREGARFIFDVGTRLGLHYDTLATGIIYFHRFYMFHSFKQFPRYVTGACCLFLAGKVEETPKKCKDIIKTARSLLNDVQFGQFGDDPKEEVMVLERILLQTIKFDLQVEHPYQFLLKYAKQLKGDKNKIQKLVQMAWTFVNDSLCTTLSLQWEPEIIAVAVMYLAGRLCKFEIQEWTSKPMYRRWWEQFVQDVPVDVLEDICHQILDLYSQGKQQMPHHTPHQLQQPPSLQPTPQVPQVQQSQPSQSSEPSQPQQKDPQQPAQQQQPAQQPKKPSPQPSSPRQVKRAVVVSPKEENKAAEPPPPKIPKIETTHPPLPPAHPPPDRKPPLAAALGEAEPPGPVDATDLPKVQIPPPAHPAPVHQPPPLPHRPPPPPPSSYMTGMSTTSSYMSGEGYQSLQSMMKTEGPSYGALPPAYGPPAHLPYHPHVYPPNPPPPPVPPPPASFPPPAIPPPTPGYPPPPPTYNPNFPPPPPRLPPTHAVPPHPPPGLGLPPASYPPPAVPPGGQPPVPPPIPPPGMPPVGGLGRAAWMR
Description: In the context of the present invention, the term “DC50 CDK12” refers to the DC50 values obtained according to the assay described in this section (7) herein below, i.e. the DC50 values for the degradation of CDK12.
Plates are then incubated for 24 h at 37° C. in an humidified incubator and fixed with 4% PFA for 10 min. […] Nuclear and cytoplasmic intensity as well as the nuclear/cytoplasmic intensity ratio is determined by automated image analysis using custom generated scripts (MetaXpress). Data is then transferred to Genedata Screener software, normalized to DMSO and control and DC50 values (degrading concentration to achieve 50% reduction of nuclear CDK12 staining intensity relative to controls) are reported.

[2] = tested on: MDA-MB-231, human breast cancer cells; assay: Proliferation assay MDA-MB-231 (crystal violet, 4 days); format: cell-based; conditions: Homo sapiens, MDA-MB-231, 96 h, MDA-MB-231 cells, median, read-out: Prolif-MDA MB-231, IC50-[mol/l] (median)
Description: Human tumour cells were originally obtained from the American Type Culture Collection (ATCC), or from the Deutsche Sammlung von Mikroorganismen und Zellkulturen (DSMZ, German Collection of Microorganisms and Cell Cultures). Cultivated tumour cells (CAL-120, human breast adenocarcinoma cells, DSMZ ACC-459; MDA-MB-231, human breast cancer cells, ATCC HTB-26) were plated at a density of 4,000 cells/well in a 96-well multititer plate in 200 microL of their respective growth medium supplemented 10% fetal calf serum. After 24 hours, the cells of one plate (zero-point plate) were stained with crystal violet (see below), while the medium of the other plates was supplemented with the test substances in various concentrations (0 micromol/L, as well as in the range of 0.01-10 micromol/L; the final concentration of the solvent dimethyl sulfoxide was adjusted to 0.1%) using a Tecan HP D300 Digital Dispenser. The cells were incubated for 4 days in the presence of test substances. Cell proliferation was determined by staining the cells with crystal violet: the cells were fixed by adding 20 microL/measuring point of an 11% glutaric aldehyde solution for 15 minutes at room temperature. After three washing cycles of the fixed cells with water, the plates were dried at room temperature. The cells were stained by adding 100 microL/measuring point of a 0.1% crystal violet solution (pH 3.0). After three washing cycles of the stained cells with water, the plates were dried at room temperature. The dye was dissolved by adding 100 microL/measuring point of a 10% acetic acid solution. The extinction was determined by photometry at a wavelength of 595 nm. The change of cell number, in percent, was calculated by normalization of the measured values to the extinction values of the zero-point plate (=0%) and the extinction of the untreated (0 μM) cells (=100%). The IC50 values (inhibitory concentration at 50% of maximal effect) were determined by means of a 4 parameter fit.

SMILES	DC50 [1]	(IC50 CDK12 high ATP) to (Degradation DC50 CDK12) ratio [1]	IC50 [2]
COc1ccc2[nH]c(CNc3nc(N4CCOCC4)nc4c(Br)cnn34)nc2c1 [Example 160, 8-bromo-N-[(5-methoxy-1H-benzimidazol-2-yl)methyl]-2-(morpholin-4-yl)pyrazolo[1,5-a][1,3,5]triazin-4-amine]	1.4 nM	889	9.22 nM
C[C@@H]1CCCCN1c1nc(NCc2nc3ccccc3[nH]2)n2ncc(Br)c2n1 [Example 140, N-[(1H-benzimidazol-2-yl)methyl]-8-bromo-2-[(2R)-2-methylpiperidin-1-yl]pyrazolo[1,5-a][1,3,5]triazin-4-amine]	58.3 nM	140	315 nM
CN1CCN(c2nc(NCc3nc4c(F)cccc4[nH]3)n3ncc(Br)c3n2)CC1 [Example 126, 8-bromo-N-[(4-fluoro-1H-benzimidazol-2-yl)methyl]-2-(4-methylpiperazin-1-yl)pyrazolo[1,5-a][1,3,5]triazin-4-amine]	0.906 nM	7539	13.1 nM
CN1CCN(c2nc(NCc3nnc(-c4cccc(F)c4)[nH]3)n3ncc(Br)c3n2)CC1 [Example 136, 8-bromo-N-{[5-(3-fluorophenyl)-4H-1,2,4-triazol-3-yl]methyl}-2-(4-methylpiperazin-1-yl)pyrazolo[1,5-a][1,3,5]triazin-4-amine]	3.61 nM	1140	26.4 nM
Brc1cnn2c(NCc3nc4ccccc4[nH]3)nc(N3CCC3)nc12 [Example 143, 2-(azetidin-1-yl)-N-[(1H-benzimidazol-2-yl)methyl]-8-bromopyrazolo[1,5-a][1,3,5]triazin-4-amine]	30.9 nM	>646	827 nM
CCN1CCN(c2nc(NCc3nc4ccccc4[nH]3)n3ncc(Br)c3n2)CC1 [Example 137, N-[(1H-benzimidazol-2-yl)methyl]-8-bromo-2-(4-ethylpiperazin-1-yl)pyrazolo[1,5-a][1,3,5]triazin-4-amine]	10.8 nM	1196	192 nM
C[C@H]1CN(c2nc(NCc3nc4ccccc4[nH]3)n3ncc(Br)c3n2)CCN1C [Example 132, N-[(1H-benzimidazol-2-yl)methyl]-8-bromo-2-[(3S)-3,4-dimethylpiperazin-1-yl]pyrazolo[1,5-a][1,3,5]triazin-4-amine]	0.922 nM	>20812	43 nM
O=S1(=O)CCN(c2nc(NCc3nc4ccccc4[nH]3)n3ncc(Br)c3n2)CC1 [Example 166, 4-(4-{[(1H-benzimidazol-2-yl)methyl]amino}-8-bromopyrazolo[1,5-a][1,3,5]triazin-2-yl)-1 lambda^6-thiomorpholine-1,1-dione]	3.39 nM	1800	164 nM
CN1CCN(c2nc(NCc3nc4cc(F)ccc4[nH]3)n3ncc(Br)c3n2)CC1 [Example 134, 8-bromo-N-[(5-fluoro-1H-benzimidazol-2-yl)methyl]-2-(4-methylpiperazin-1-yl)pyrazolo[1,5-a][1,3,5]triazin-4-amine]	0.991 nM	>17850	11.7 nM
Brc1cnn2c(NCc3nc4ccccc4[nH]3)nc(N3CCNCC3)nc12 [Example 128, N-[(1H-benzimidazol-2-yl)methyl]-8-bromo-2-(piperazin-1-yl)pyrazolo[1,5-a][1,3,5]triazin-4-amine]	1.37 nM	7939	16 nM
N=S1(=O)CCN(c2nc(NCc3nc4ccccc4[nH]3)n3ncc(Br)c3n2)CC1 [Example 145, 4-(4-{[(1H-benzimidazol-2-yl)methyl]amino}-8-bromopyrazolo[1,5-a][1,3,5]triazin-2-yl)-1-imino-1lambda^6-thiomorpholin-1-one]	16.8 nM	751	1620 nM
Cc1cccc2[nH]c(CNc3nc(N4CCN(C)CC4)nc4c(Br)cnn34)nc12 [Example 151, 8-bromo-N-[(4-methyl-1H-benzimidazol-2-yl)methyl]-2-(4-methylpiperazin-1-yl)pyrazolo[1,5-a][1,3,5]triazin-4-amine]	2.07 nM	2046	37.2 nM
C[C@@H]1CN(c2nc(NCc3nc4ccccc4[nH]3)n3ncc(Br)c3n2)CCN1C [Example 135, N-[(1H-benzimidazol-2-yl)methyl]-8-bromo-2-[(3R)-3,4-dimethylpiperazin-1-yl]pyrazolo[1,5-a][1,3,5]triazin-4-amine]	3.69 nM	3939	44 nM
CN1CCN(c2nc(NCc3nc4c(F)c(F)ccc4[nH]3)n3ncc(Br)c3n2)CC1 [Example 133, 8-bromo-N-[(4,5-difluoro-1H-benzimidazol-2-yl)methyl]-2-(4-methylpiperazin-1-yl)pyrazolo[1,5-a][1,3,5]triazin-4-amine]	0.846 nM	8279	4.94 nM
C[C@H]1CN(c2nc(NCc3nnc(-c4cccc(F)c4)[nH]3)n3ncc(Br)c3n2)CCN1C [Example 154, 8-bromo-2-[(3S)-3,4-dimethylpiperazin-1-yl]-N-{[5-(3-fluorophenyl)-4H-1,2,4-triazol-3-yl]methyl}pyrazolo[1,5-a][1,3,5]triazin-4-amine]	5.27 nM	1360	26.2 nM
CN1CCN(c2nc(NCc3nc4ccccc4[nH]3)n3ncc(Br)c3n2)C(CO)C1 (stereo not drawn) [Example 155, [1-[4-(1H-benzimidazol-2-ylmethylamino)-8-bromo-pyrazolo[1,5-a][1,3,5]triazin-2-yl]-4-methyl-piperazin-2-yl]methanol]	47.2 nM	79	174 nM
Brc1cnn2c(NCc3nc4ccccc4[nH]3)nc(N3CCN4CCC[C@@H]4C3)nc12 [Example 149, N-[(1H-benzimidazol-2-yl)methyl]-8-bromo-2-[(8aR)-hexahydropyrrolo[1,2-a]pyrazin-2 (1 H)-yl]pyrazolo[1,5-a][1,3,5]triazin-4-amine]	12.6 nM	495	276 nM
[O-][S+]1CCN(c2nc(NCc3nc4ccccc4[nH]3)n3ncc(Br)c3n2)CC1 [Example 144, 4-(4-{[(1H-benzimidazol-2-yl)methyl]amino}-8-bromopyrazolo[1,5-a][1,3,5]triazin-2-yl)-1lambda^4-thiomorpholin-1-one]	6.32 nM	590	185 nM
Clc1ccc2[nH]c(CNc3nc(N4CCOCC4)nc4c(Br)cnn34)nc2c1 [Example 162, 8-bromo-N-[(5-chloro-1H-benzimidazol-2-yl)methyl]-2-(morpholin-4-yl)pyrazolo[1,5-a][1,3,5]triazin-4-amine]	0.471 nM	2160	4.02 nM
C[C@@H]1CN(c2nc(NCc3nnc(-c4ccccc4)[nH]3)n3ncc(Br)c3n2)CCN1C.O=CO [Example 130, 8-bromo-2-[(3R)-3,4-dimethylpiperazin-1-yl]-N-[(5-phenyl-4H-1,2,4-triazol-3-yl)methyl]pyrazolo[1,5-a][1,3,5]triazin-4-amine formate]	3.31 nM	2547	35.6 nM
CN1CCN(c2nc(NCc3nc4cc(Cl)ccc4[nH]3)n3ncc(Br)c3n2)CC1 [Example 163, 8-bromo-N-[(5-chloro-1H-benzimidazol-2-yl)methyl]-2-(4-methylpiperazin-1-yl)pyrazolo[1,5-a][1,3,5]triazin-4-amine]	0.334 nM	>17106	3.96 nM
